Source: ChEMBL document CHEMBL4507286 (2021)

How the values were obtained:
[1] = molecular target: Serine/threonine-protein kinase NIM1 (Homo sapiens) (UniProt Q8IY84)
[2] = molecular target: Homeodomain-interacting protein kinase 3 (Homo sapiens) (UniProt Q9H422)
[3] = molecular target: Dual specificity mitogen-activated protein kinase kinase 2 (Homo sapiens) (UniProt P36507)
[4] = molecular target: Cyclin-dependent kinase 19 (Homo sapiens) (UniProt Q9BWU1)
[5] = molecular target: Serine/threonine-protein kinase 36 (Homo sapiens) (UniProt Q9NRP7)
[6] = molecular target: Cyclin-dependent kinase 7 (Homo sapiens, UniProt P50613)
[7] = molecular target: Casein kinase II subunit alpha (Homo sapiens) (UniProt P68400)
[8] = test system: Tyrosine-protein kinase ABL1 (Homo sapiens), P00519 [F317L]
[9] = molecular target: Mitotic checkpoint serine/threonine-protein kinase BUB1 (Homo sapiens) (UniProt O43683)
[10] = molecular target: Phosphatidylinositol 4-phosphate 3-kinase C2 domain-containing subunit beta (Homo sapiens) (UniProt O00750)
[11] = molecular target: Tyrosine-protein kinase ABL2 (Homo sapiens) (UniProt P42684)
[12] = molecular target: Dual specificity mitogen-activated protein kinase kinase 3 (Homo sapiens) (UniProt P46734)
[13] = molecular target: Tyrosine-protein kinase Yes (Homo sapiens) (UniProt P07947)
[14] = molecular target: Serine/threonine-protein kinase ULK2 (Homo sapiens) (UniProt Q8IYT8)
[15] = molecular target: Activin receptor type-1B (Homo sapiens) (UniProt P36896)
[16] = molecular target: Activin receptor type-2B (Homo sapiens) (UniProt Q13705)
[17] = molecular target: Mitogen-activated protein kinase kinase kinase 20 (Homo sapiens) (UniProt Q9NYL2)
[18] = test system: eIF-2-alpha kinase GCN2 (Homo sapiens), Q9P2K8 [S808G]
[19] = molecular target: 5'-AMP-activated protein kinase catalytic subunit alpha-2 (Homo sapiens) (UniProt P54646)
[20] = test system: Phosphatidylinositol 4,5-bisphosphate 3-kinase catalytic subunit alpha isoform (Homo sapiens), P42336 [Q546K]
[21] = molecular target: 5'-AMP-activated protein kinase catalytic subunit alpha-1 (Homo sapiens) (UniProt Q13131)
[22] = molecular target: Interleukin-1 receptor-associated kinase 1 (Homo sapiens) (UniProt P51617)
[23] = molecular target: Mitogen-activated protein kinase kinase kinase 13 (Homo sapiens) (UniProt O43283)
[24] = molecular target: cAMP-dependent protein kinase catalytic subunit alpha (Homo sapiens) (UniProt P17612)
[25] = molecular target: Tyrosine-protein kinase TXK (Homo sapiens) (UniProt P42681)
[26] = molecular target: Serine/threonine-protein kinase 4 (Homo sapiens) (UniProt Q13043)
[27] = molecular target: Serine/threonine-protein kinase 24 (Homo sapiens) (UniProt Q9Y6E0)
[28] = molecular target: MAP kinase-interacting serine/threonine-protein kinase 1 (Homo sapiens) (UniProt Q9BUB5)
[29] = test system: Tyrosine-protein kinase ABL1 (Homo sapiens), P00519 [H396P]
[30] = molecular target: Serine/threonine-protein kinase WNK1 (Homo sapiens) (UniProt Q9H4A3)
[31] = molecular target: Protein kinase C epsilon type (Homo sapiens) (UniProt Q02156)
[32] = molecular target: Alpha-1A adrenergic receptor (Homo sapiens) (UniProt P35348); details: Compound concentration 10.0 uM
[33] = molecular target: Activin receptor type-1 (Homo sapiens) (UniProt Q04771)
[34] = molecular target: Aurora kinase B (Homo sapiens) (UniProt Q96GD4)
[35] = molecular target: RAC-gamma serine/threonine-protein kinase (Homo sapiens) (UniProt Q9Y243)
[36] = test system: Tyrosine-protein kinase ABL1 (Homo sapiens), P00519 [F317I]
[37] = molecular target: Serine/threonine-protein kinase 32B (Homo sapiens) (UniProt Q9NY57)
[38] = molecular target: Insulin receptor (Homo sapiens) (UniProt P06213)
[39] = test system: Mast/stem cell growth factor receptor Kit (Homo sapiens), P10721 [V559D]
[40] = molecular target: TGF-beta receptor type-2 (Homo sapiens) (UniProt P37173)
[41] = molecular target: 5-hydroxytryptamine receptor 3A (Homo sapiens) (UniProt P46098); details: Compound concentration 10.0 uM
[42] = molecular target: Platelet-derived growth factor receptor alpha (Homo sapiens) (UniProt P16234)
[43] = test system: Hepatocyte growth factor receptor (Homo sapiens), P08581 [M1250T]
[44] = molecular target: Phosphatidylinositol 4-phosphate 5-kinase type-1 gamma (Homo sapiens) (UniProt O60331)
[45] = molecular target: Myosin-IIIb (Homo sapiens) (UniProt Q8WXR4)
[46] = Compound concentration 1000.0 nM
[47] = Compound concentration 100.0 nM

eIF-2-alpha kinase GCN2 (Homo sapiens), Q9P2K8 [S808G], sequence (Q9P2K8 whole entry S808G): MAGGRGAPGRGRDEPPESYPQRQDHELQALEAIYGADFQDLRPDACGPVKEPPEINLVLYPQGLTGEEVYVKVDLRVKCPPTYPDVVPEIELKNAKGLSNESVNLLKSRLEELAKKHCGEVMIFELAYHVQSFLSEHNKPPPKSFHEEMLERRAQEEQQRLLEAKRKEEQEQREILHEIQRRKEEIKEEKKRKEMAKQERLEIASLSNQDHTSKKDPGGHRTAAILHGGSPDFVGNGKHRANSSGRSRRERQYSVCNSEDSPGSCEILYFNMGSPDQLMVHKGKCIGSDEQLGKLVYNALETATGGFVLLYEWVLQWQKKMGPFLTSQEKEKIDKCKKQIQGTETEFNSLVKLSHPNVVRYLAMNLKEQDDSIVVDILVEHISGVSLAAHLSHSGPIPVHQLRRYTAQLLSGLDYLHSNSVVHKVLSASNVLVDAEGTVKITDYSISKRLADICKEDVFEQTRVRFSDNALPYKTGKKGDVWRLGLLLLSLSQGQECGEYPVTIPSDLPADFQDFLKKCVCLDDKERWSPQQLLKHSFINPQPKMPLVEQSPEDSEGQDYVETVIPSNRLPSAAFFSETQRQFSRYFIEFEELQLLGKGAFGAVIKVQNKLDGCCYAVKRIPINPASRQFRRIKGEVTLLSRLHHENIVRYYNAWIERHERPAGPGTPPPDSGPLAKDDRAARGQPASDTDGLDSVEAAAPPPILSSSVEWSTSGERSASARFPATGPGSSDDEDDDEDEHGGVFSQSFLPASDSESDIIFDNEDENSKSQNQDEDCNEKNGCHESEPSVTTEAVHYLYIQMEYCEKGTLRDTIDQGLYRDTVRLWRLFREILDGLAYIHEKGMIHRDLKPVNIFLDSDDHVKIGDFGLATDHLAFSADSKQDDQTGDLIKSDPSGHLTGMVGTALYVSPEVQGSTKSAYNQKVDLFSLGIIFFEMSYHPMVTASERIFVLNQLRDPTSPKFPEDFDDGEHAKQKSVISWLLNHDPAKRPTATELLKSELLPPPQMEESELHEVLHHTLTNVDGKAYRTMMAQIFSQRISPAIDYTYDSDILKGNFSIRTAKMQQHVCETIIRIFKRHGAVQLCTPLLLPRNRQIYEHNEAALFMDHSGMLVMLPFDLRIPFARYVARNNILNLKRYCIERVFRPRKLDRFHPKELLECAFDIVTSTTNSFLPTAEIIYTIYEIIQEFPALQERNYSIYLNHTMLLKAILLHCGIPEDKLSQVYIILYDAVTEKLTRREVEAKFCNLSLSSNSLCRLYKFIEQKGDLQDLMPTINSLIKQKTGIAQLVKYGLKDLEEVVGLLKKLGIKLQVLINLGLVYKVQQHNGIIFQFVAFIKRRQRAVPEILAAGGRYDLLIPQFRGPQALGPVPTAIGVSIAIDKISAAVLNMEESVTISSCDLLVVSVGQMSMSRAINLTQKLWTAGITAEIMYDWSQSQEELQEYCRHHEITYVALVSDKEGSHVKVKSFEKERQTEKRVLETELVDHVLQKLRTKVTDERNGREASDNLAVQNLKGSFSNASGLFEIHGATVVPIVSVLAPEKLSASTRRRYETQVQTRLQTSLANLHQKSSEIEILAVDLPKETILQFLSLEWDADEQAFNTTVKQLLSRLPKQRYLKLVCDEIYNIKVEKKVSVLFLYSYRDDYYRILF
Activin receptor type-2B (Homo sapiens), sequence (Q13705 whole entry): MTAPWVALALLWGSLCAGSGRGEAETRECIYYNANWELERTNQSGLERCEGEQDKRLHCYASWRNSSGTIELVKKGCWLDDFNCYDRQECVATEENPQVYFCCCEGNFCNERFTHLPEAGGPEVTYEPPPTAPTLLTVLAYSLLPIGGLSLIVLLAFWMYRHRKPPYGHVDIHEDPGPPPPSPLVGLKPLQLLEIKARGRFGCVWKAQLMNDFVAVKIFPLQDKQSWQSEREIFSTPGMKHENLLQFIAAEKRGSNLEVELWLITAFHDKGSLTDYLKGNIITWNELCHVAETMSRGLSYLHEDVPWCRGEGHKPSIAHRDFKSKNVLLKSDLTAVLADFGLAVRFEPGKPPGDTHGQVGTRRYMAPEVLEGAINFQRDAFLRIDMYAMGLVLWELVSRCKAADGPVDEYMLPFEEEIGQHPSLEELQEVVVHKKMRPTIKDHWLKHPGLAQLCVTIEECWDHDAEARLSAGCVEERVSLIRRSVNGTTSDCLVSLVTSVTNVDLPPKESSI
Casein kinase II subunit alpha (Homo sapiens), sequence (P68400 whole entry, looked up): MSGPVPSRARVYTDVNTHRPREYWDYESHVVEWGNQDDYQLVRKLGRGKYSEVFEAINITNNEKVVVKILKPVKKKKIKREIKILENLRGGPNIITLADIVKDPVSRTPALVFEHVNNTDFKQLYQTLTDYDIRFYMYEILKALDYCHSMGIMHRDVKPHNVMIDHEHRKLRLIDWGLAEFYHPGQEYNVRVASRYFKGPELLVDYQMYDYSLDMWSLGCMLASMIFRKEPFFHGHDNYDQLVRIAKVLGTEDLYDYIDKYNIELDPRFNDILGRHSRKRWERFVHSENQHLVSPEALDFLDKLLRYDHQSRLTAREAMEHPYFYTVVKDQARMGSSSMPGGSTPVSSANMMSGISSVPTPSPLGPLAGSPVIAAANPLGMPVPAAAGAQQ
Alpha-1A adrenergic receptor (Homo sapiens), sequence (P35348 whole entry): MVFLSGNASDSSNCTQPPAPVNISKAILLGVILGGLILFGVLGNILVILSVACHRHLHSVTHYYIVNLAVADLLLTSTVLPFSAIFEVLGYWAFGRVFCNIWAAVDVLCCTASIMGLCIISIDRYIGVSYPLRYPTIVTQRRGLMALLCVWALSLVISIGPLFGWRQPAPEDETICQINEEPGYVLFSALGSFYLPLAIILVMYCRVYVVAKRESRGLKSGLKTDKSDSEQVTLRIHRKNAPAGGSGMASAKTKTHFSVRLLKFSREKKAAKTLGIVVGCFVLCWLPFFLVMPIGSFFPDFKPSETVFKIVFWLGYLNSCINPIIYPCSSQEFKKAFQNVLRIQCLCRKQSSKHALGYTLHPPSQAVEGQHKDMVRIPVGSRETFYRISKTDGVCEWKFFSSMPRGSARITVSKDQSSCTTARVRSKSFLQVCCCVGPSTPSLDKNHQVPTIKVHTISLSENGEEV
Cyclin-dependent kinase 7, sequence (P50613 whole entry): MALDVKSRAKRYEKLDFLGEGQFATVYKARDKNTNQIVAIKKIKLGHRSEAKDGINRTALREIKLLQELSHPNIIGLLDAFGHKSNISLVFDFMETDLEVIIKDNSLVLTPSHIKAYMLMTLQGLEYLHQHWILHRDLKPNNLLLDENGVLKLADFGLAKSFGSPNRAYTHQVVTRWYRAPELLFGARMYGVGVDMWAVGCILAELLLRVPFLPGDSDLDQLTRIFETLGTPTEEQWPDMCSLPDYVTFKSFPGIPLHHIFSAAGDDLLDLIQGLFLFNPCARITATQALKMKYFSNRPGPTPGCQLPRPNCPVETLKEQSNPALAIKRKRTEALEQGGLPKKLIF
Phosphatidylinositol 4,5-bisphosphate 3-kinase catalytic subunit alpha isoform (Homo sapiens), P42336 [Q546K], sequence (P42336 whole entry Q546K, canonical isoform): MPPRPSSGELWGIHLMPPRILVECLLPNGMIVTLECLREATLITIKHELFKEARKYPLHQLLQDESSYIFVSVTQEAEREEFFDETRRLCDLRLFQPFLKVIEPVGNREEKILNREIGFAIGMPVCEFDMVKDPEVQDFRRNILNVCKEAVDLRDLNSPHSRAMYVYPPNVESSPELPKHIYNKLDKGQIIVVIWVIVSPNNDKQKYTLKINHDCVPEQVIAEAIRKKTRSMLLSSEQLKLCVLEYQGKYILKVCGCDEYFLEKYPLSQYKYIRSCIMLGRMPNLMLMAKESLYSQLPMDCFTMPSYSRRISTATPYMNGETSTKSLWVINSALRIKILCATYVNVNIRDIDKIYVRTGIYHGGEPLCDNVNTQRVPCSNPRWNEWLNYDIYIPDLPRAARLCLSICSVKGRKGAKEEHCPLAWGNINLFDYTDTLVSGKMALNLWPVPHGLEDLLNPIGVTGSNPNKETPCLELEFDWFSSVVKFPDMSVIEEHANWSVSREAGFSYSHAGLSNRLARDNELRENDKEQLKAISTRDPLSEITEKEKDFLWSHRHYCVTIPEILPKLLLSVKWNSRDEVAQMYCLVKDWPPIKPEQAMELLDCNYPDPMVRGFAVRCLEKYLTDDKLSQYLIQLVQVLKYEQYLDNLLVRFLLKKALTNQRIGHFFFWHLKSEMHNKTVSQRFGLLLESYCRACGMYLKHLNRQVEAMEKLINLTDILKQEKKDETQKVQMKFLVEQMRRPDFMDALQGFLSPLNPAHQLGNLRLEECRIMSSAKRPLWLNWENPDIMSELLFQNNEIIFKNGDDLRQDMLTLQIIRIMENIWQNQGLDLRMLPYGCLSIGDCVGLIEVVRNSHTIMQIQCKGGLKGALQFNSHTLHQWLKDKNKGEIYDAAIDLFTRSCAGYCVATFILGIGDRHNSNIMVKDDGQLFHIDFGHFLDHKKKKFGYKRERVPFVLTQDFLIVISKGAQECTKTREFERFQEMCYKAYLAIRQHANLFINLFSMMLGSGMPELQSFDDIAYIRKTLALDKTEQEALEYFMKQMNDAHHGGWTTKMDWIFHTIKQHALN
Cyclin-dependent kinase 19 (Homo sapiens), sequence (Q9BWU1 whole entry): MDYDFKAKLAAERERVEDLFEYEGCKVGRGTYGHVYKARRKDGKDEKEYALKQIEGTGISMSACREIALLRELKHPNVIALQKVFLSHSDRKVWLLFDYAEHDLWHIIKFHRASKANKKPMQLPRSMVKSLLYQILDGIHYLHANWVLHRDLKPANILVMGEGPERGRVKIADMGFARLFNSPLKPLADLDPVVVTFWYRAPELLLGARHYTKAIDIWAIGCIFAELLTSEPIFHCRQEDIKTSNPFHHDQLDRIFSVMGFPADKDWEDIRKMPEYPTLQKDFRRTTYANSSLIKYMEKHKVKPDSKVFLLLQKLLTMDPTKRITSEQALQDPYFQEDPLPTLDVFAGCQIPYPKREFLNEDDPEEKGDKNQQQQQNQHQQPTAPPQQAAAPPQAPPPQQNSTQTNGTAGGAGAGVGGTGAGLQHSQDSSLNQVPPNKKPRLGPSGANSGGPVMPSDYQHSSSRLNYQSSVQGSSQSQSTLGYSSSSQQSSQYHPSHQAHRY

## C[C@H](NC(=O)Nc1cc2[nH]ncc2c(CO)n1)c1ccccn1 [ERKi-NC]
[1]; [46]
  residual activity: 100%
[2]; [46]
  residual activity: 85.1%
[3]; [46]
  residual activity: 90.7%
[4]; [46]
  residual activity: 71.3%
[5]; [46]
  residual activity: 97.3%
[6]; [46]
  residual activity: 100%
[7]; [46]
  residual activity: 100%
[8]; [46]
  residual activity: 100%
[9]; [46]
  residual activity: 100%
[10]; [46]
  residual activity: 100%
[11]; [46]
  residual activity: 100%
[12]; [46]
  residual activity: 76.3%
[13]; [46]
  residual activity: 100%
[14]; [46]
  residual activity: 100%
[15]; [46]
  residual activity: 76.1%
[16]; [46]
  residual activity: 86.2%
[17]; [46]
  residual activity: 74.7%
[18]; [46]
  residual activity: 77.2%
[19]; [46]
  residual activity: 100%
[20]; [46]
  residual activity: 100%
[21]; [46]
  residual activity: 100%
[22]; [46]
  residual activity: 100%
[23]; [46]
  residual activity: 100%
[24]; [46]
  residual activity: 87.7%
[25]; [46]
  residual activity: 51%
[26]; [46]
  residual activity: 100%
[27]; [46]
  residual activity: 98%
[28]; [46]
  residual activity: 100%
[29]; [46]
  residual activity: 72.5%
[30]; [46]
  residual activity: 100%
[31]; [46]
  residual activity: 100%
[32]
  inhibition: -8.5%
[33]; [46]
  residual activity: 81.8%
[34]; [46]
  residual activity: 79.8%
[35]; [46]
  residual activity: 100%
[36]; [46]
  residual activity: 100%
[37]; [46]
  residual activity: 100%
[38]; [46]
  residual activity: 100%
[39]; [46]
  residual activity: 100%
[40]; [46]
  residual activity: 76.1%
[41]
  inhibition: -0.282%
[42]; [46]
  residual activity: 100%
[43]; [46]
  residual activity: 100%
[44]; [46]
  residual activity: 99.3%
[45]; [46]
  residual activity: 67.6%

## C[C@@H](NC(=O)Nc1cc2[nH]ncc2c(CO)n1)c1ccccc1 [ERKi]
[1]; [47]
  residual activity: 100%
[2]; [47]
  residual activity: 96.2%
[3]; [47]
  residual activity: 84.8%
[4]; [47]
  residual activity: 97.2%
[5]; [47]
  residual activity: 88.4%
[6]; [47]
  residual activity: 73.6%
[7]; [47]
  residual activity: 94%
[8]; [47]
  residual activity: 100%
[9]; [47]
  residual activity: 96%
[10]; [47]
  residual activity: 85.7%
[11]; [47]
  residual activity: 83.9%
[12]; [47]
  residual activity: 77%
[13]; [47]
  residual activity: 96.9%
[14]; [47]
  residual activity: 79.7%
[15]; [47]
  residual activity: 100%
[16]; [47]
  residual activity: 87.6%
[17]; [47]
  residual activity: 100%
[18]; [47]
  residual activity: 100%
[19]; [47]
  residual activity: 59.6%
[20]; [47]
  residual activity: 100%
[21]; [47]
  residual activity: 91%
[22]; [47]
  residual activity: 54.8%
[23]; [47]
  residual activity: 100%
[24]; [47]
  residual activity: 91.8%
[25]; [47]
  residual activity: 100%
[26]; [47]
  residual activity: 100%
[27]; [47]
  residual activity: 100%
[28]; [47]
  residual activity: 89.6%
[29]; [47]
  residual activity: 94.6%
[30]; [47]
  residual activity: 90.8%
[31]; [47]
  residual activity: 85%
[32]
  inhibition: 16.1%
[33]; [47]
  residual activity: 98.3%
[34]; [47]
  residual activity: 100%
[35]; [47]
  residual activity: 73.3%
[36]; [47]
  residual activity: 80.2%
[37]; [47]
  residual activity: 96.6%
[38]; [47]
  residual activity: 74.7%
[39]; [47]
  residual activity: 88.3%
[40]; [47]
  residual activity: 40.8%
[41]
  inhibition: 4.36%
[42]; [47]
  residual activity: 87.3%
[43]; [47]
  residual activity: 72.3%
[44]; [47]
  residual activity: 89.9%
[45]; [47]
  residual activity: 82.5%
